Measurements published in ChEMBL document CHEMBL1201862, “PubChem BioAssay data set” (2004).
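Five concentrations, 48 hours, 96-well plates. GI50 is the concentration that inhibits growth by half.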 Active and inactive are the calls of the source. No stated cut-off is given here; in the data, active = GI50 up to about 1.1 µM and inactive = higher.

Columns and labels:
Assay in all cases: growth of human tumour cells (NCI), 48 h
A498 = test system: A498
A549 = test system: A549
ACHN = test system: ACHN
BT-549 = test system: BT-549
CAKI-1 = test system: CAKI-1
CCRF-CEM = test system: CCRF-CEM
COLO 205 = test system: COLO 205
DU-145 = test system: DU-145
EKVX = test system: EKVX
HCC 2998 = test system: HCC 2998
HCT-116 = test system: HCT-116
HCT-15 = test system: HCT-15
HL-60 = test system: HL-60
HOP-62 = test system: HOP-62
HOP-92 = test system: HOP-92
HT-29 = test system: HT-29
Hs-578T = test system: Hs-578T
IGROV-1 = test system: IGROV-1
K562 = test system: K562
KM12 = test system: KM12
LOX IMVI = test system: LOX IMVI
M14 = test system: M14
MCF7 = test system: MCF7
MDA-MB-231 = test system: MDA-MB-231
MDA-MB-435 = test system: MDA-MB-435
MOLT-4 = test system: MOLT-4
Malme-3M = test system: Malme-3M
NCI-H23 = test system: NCI-H23
NCI-H460 = test system: NCI-H460
NCI-H522 = test system: NCI-H522
NCI/ADR-RES = test system: NCI/ADR-RES
OVCAR-3 = test system: OVCAR-3
OVCAR-4 = test system: OVCAR-4
OVCAR-5 = test system: OVCAR-5
OVCAR-8 = test system: OVCAR-8
PC-3 = test system: PC-3
RPMI-8226 = test system: RPMI-8226
RXF 393 = test system: RXF 393
SF-268 = test system: SF-268
SF-295 = test system: SF-295
SF-539 = test system: SF-539
SK-MEL-28 = test system: SK-MEL-28
SK-MEL-2 = test system: SK-MEL-2
SK-MEL-5 = test system: SK-MEL-5
SK-OV-3 = test system: SK-OV-3
SN12C = test system: SN12C
SNB-19 = test system: SNB-19
SNB-75 = test system: SNB-75
SW-620 = test system: SW-620
T47D = test system: T47D
TK-10 = test system: TK-10
U-251 = test system: U-251
UACC-257 = test system: UACC-257
UACC-62 = test system: UACC-62
UO-31 = test system: UO-31
786-0 = test system: 786-0
MDA-N = test system: MDA-N
NCI-H226 = test system: NCI-H226
SR = test system: SR

Measured: GI50

Oc1ccc(NCn2c(=S)sc3ccccc32)cc1
> 100 µM: HCT-15
inactive: A498 > 100 µM | A549 > 100 µM | ACHN > 100 µM | BT-549 > 100 µM | CAKI-1 > 100 µM | CCRF-CEM 32 µM | COLO 205 > 100 µM | DU-145 > 100 µM | EKVX > 100 µM | HCC 2998 > 100 µM | HCT-116 > 100 µM | HL-60 59.6 µM | HOP-62 > 100 µM | HOP-92 33 µM | HT-29 > 100 µM | Hs-578T 50 µM | IGROV-1 33.2 µM | K562 22.3 µM | KM12 > 100 µM | LOX IMVI > 100 µM | M14 > 100 µM | MCF7 92.9 µM | MDA-MB-231 > 100 µM | MDA-MB-435 > 100 µM | MOLT-4 34.2 µM | Malme-3M > 100 µM | NCI-H23 > 100 µM | NCI-H460 > 100 µM | NCI-H522 17.7 µM | NCI/ADR-RES > 100 µM | OVCAR-3 97.9 µM | OVCAR-4 91 µM | OVCAR-5 > 100 µM | OVCAR-8 > 100 µM | PC-3 > 100 µM | RPMI-8226 26.2 µM | RXF 393 > 100 µM | SF-268 > 100 µM | SF-295 > 100 µM | SF-539 > 100 µM | SK-MEL-28 > 100 µM | SK-MEL-2 > 100 µM | SK-MEL-5 > 100 µM | SK-OV-3 > 100 µM | SN12C > 100 µM | SNB-19 > 100 µM | SNB-75 54.8 µM | SW-620 42.7 µM | T47D 34.4 µM | TK-10 > 100 µM | U-251 > 100 µM | UACC-257 > 100 µM | UACC-62 84.5 µM | UO-31 89.9 µM

Cc1[nH]n(-c2ncc(C#N)c(=O)[nH]2)c(=O)c1CCO
inactive: 786-0 > 100 µM | A498 > 100 µM | A549 > 100 µM | ACHN > 100 µM | CAKI-1 > 100 µM | CCRF-CEM > 100 µM | COLO 205 > 100 µM | DU-145 > 100 µM | EKVX > 100 µM | HCC 2998 > 100 µM | HCT-116 > 100 µM | HOP-62 > 100 µM | HOP-92 > 100 µM | HT-29 > 100 µM | Hs-578T > 100 µM | IGROV-1 > 100 µM | K562 > 100 µM | KM12 > 100 µM | LOX IMVI > 100 µM | M14 > 100 µM | MCF7 > 100 µM | MDA-MB-231 > 100 µM | MDA-MB-435 > 100 µM | MDA-N > 100 µM | MOLT-4 75.5 µM | Malme-3M > 100 µM | NCI-H226 > 100 µM | NCI-H23 > 100 µM | NCI-H460 > 100 µM | NCI-H522 > 100 µM | NCI/ADR-RES > 100 µM | OVCAR-3 > 100 µM | OVCAR-4 > 100 µM | OVCAR-5 > 100 µM | OVCAR-8 > 100 µM | PC-3 > 100 µM | RPMI-8226 > 100 µM | RXF 393 > 100 µM | SF-268 > 100 µM | SF-295 > 100 µM | SF-539 > 100 µM | SK-MEL-28 > 100 µM | SK-MEL-2 > 100 µM | SK-MEL-5 > 100 µM | SK-OV-3 > 100 µM | SN12C > 100 µM | SNB-19 > 100 µM | SNB-75 16.4 µM | SR > 100 µM | SW-620 > 100 µM | T47D > 100 µM | TK-10 > 100 µM | U-251 > 100 µM | UACC-257 > 100 µM | UACC-62 > 100 µM | UO-31 > 100 µM
> 100 µM: HCT-15
